# Assay results from patent US20100303754A1, “PROCESS FOR PREPARATION OF CYCLODEXTRIN OLIGOMERS OR POLYMERS, PRODUCTS OBTAINED AND USES” (BIOCYDEX, priority 2006, published 2010).
# Assay: Solubilization tests of active ingredients by cyclodextrin dimers/trimer (soluble fraction analysed by CLHP)
# Type: physicochemical
# Settings: thermodynamic from solid; Water alone, no cyclodextrin oligomer; stirred 24 hours; read-out: Amount of active ingredient solubilized in water
# Protocol: Each solution is stirred for 24 hours, and then the soluble fractions are analyzed by CLHP after ultracentrifuging and filtration.
row,solubility at 24 h [µg/mL],Structure (SMILES)
1,0.1,CCC(=O)O[C@]1(C(=O)SCF)[C@H](C)C[C@H]2[C@@H]3C[C@H](F)C4=CC(=O)C=C[C@]4(C)[C@@]3(F)[C@@H](O)C[C@@]21C [Fluticasone Propionate]
2,464,CC[C@H]1OC(=O)[C@H](C)[C@@H](O[C@H]2C[C@@](C)(OC)[C@@H](O)[C@H](C)O2)[C@H](C)[C@@H](O[C@@H]2O[C@H](C)C[C@H](N(C)C)[C@H]2O)[C@](C)(O)C[C@@H](C)/C(=N\OCOCCOC)[C@H](C)[C@@H](O)[C@]1(C)O [Roxithromycin]
3,0.7,CC(=O)O[C@H]1C(=O)[C@@]2(C)[C@H]([C@H](OC(=O)c3ccccc3)[C@]3(O)C[C@H](OC(=O)[C@H](O)[C@@H](NC(=O)c4ccccc4)c4ccccc4)C(C)=C1C3(C)C)[C@]1(OC(C)=O)CO[C@@H]1C[C@@H]2O [Taxol]
4,4,CC(=O)O[C@@]12CO[C@@H]1C[C@H](O)[C@@]1(C)C(=O)[C@H](O)C3=C(C)[C@@H](OC(=O)[C@H](O)[C@@H](NC(=O)OC(C)(C)C)c4ccccc4)C[C@@](O)([C@@H](OC(=O)c4ccccc4)[C@H]21)C3(C)C [Taxotere]
5,685,C[C@@H](c1ncncc1F)[C@](O)(Cn1cncn1)c1ccc(F)cc1F [Voriconazole]
